Source: patent US20240262848A1, “HETEROCYCLIC COMPOUNDS, COMPOSITIONS THEREOF, AND METHODS OF TREATMENT THEREWITH” (BeiGene, Ltd., priority 2022, published 2024)

Experiments:
[1] = target: GST-tagged GDP-loaded KRAS G12D (amin acids 1-188) (Homo sapiens, UniProt P01116, G12D); test: KRAS G12D probe displacement assay (TR-FRET); assay type: binding; conditions: Table 5; KRAS G12D 0.5 nM, biotinylated probe 2 4 nM
Method: Plates are incubated at 24° C. for 1 hr.

[2] = test system: pERK1/2(THR202/TYR204) level in AsPC-1 cell line; test: KRAS G12D pERK assay in AsPC-1 cells (HTRF); assay type: cell-based
Method: AsPC-1 cell line was used in this study. Cells were maintained in RPMI-1640 supplemented with 10% fetal bovine serum (Thermo Fisher), 50 units/ml, penicillin and streptomycin (Thermo Fisher) and kept at 37° C. in a humidified atmosphere of 5% CO2 in air. Cells were reinstated from frozen stocks that were laid down within 30 passages from the original cells purchased. 30000 cells per well were seeded into a 96-well plate and incubated overnight. Cells were treated with a 10-point dilution series. The final compound concentration is from 0 to 10 μM. After 2 h compound treatment, cells were lysed, and the pERK1/2(THR202/TYR204) level in the cell lysates was detected by HTRF kit (Cisbio). In brief, a total of 16 μL of cell lysate from each well of a 96-well plate was transferred to a 384-well white assay plate. Lysate from each well was incubated with 2 μL of Eu3+-cryptate (donor) labeled anti-phospho-ERK1/2 and 2 μL of D2 (acceptor) labeled anti-phospho-ERK1/2 antibodies (Cisbio) overnight in dark at room temperature. When the donor and acceptor are in close proximity, excitation of the donor with laser triggers a Fluorescence Resonance Energy Transfer (FRET) towards the acceptor, which in turn fluoresces at 655 nm wavelength. FRET signals were measured using a PHERAstar FSX reader (BMG Labtech). IC50 determination was performed by fitting the curve of percent inhibition versus the log of the inhibitor concentration using Dotmatics.

[3] = target: GST-tagged GDP-loaded KRAS G12V (amino acids 1-169) (Homo sapiens, UniProt P01116, G12V); test: KRAS G12V probe displacement assay (TR-FRET); assay type: binding; conditions: Table 4; KRAS G12V 2 nM, biotinylated probe 2 2.5 nM
GST-tagged GDP-loaded KRAS G12V (amino acids 1-169), sequence (P01116 1-169 isoform P01116-2 G12V): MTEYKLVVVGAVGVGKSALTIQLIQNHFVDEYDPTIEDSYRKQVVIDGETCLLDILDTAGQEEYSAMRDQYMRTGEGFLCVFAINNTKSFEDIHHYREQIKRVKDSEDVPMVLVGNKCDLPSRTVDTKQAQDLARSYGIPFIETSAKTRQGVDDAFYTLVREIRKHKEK
Method: Plates are incubated at 24 °C for 1 hr. […] After 1 hr incubation at 24° C.

[4] = test system: pERK1/2(THR202/TYR204) level in SW620 cell line; test: KRAS G12V pERK assay in SW620 cells (HTRF); assay type: cell-based
Method in brief: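 SW620 cells were treated for 2 h with a 10-point dilution series (final 0–10 μM) after overnight seeding. Lysates were then incubated overnight at room temperature with Eu3+-cryptate and acceptor anti-phospho-ERK1/2 antibodies, and HTRF was read at 655 nm. IC50 was fitted from percent inhibition versus log concentration.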

[5] = Homo sapiens, ASPC1, Table 5, 2 h compound treatment
[6] = Homo sapiens, SW-620, Table 4, 2 hrs compound treatment

GST-tagged GDP-loaded KRAS G12D (amin acids 1-188), sequence (P01116 1-188 isoform P01116-2 G12D): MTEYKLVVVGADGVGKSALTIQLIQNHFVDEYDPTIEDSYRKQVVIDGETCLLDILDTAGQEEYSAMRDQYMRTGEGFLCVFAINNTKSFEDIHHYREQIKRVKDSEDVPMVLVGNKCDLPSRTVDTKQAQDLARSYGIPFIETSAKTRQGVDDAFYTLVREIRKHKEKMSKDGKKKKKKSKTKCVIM

SMILES | IC50 [1] | IC50 [2, 5] | IC50 [3] | IC50 [4, 6] | IC50 ([2]; Table 5, 2 h compound treatment) | IC50 ([4]; Table 4, 2 hrs compound treatment)
CNCCN1c2nc(OC[C@@]34CCCN3C[C@H](F)C4)nc3c(F)c(-c4cc(N)cc(Cl)c4C(F)(F)F)nc(c23)O[C@H]2CCCC[C@@H]21 [Example 48, 3-chloro-5-((7aS,11aS)-4-fluoro-2-(((2R,7aS)-2-fluorotetrahydro-1H-pyrrolizin-7a(5H)-yl)methoxy)-12-(2-(methylamino)ethyl)-7a, 8,10,11,11a, 12-hexahydro-9H-7-oxa-1,3,6,12-tetraazapleiaden-5-yl)-4-(trifluoromethyl)aniline] | 20 nM | 3380 nM |  |  |  | 
CN1c2nc(OC[C@@]34CCCN3C[C@H](F)C4)nc3c(F)c(-c4cc(N)cc(Cl)c4C(F)(F)F)nc(c23)OC[C@@H]2COC[C@H]21 (single isomer, unassigned) [Example 68 Isomer 2] | 0.14 nM | 6.9 nM | 0.51 nM | 1.4 nM |  | 
CN1c2nc(OC[C@@]34CCCN3C[C@H](F)C4)nc3c(F)c(-c4cc(N)cc(Cl)c4C(F)(F)F)nc(c23)OCC2CNCC21 (stereo partly drawn) [Example 27, 3-chloro-5-(4-fluoro-2-(((2R,7aS)-2-fluorotetrahydro-1H-pyrrolizin-7a(5H)-yl)methoxy)-12-methyl-8a, 9,10,11,11a, 12-hexahydro-8H-7-oxa-1,3,6,10,12-pentaazacyclopenta[5,6]cycloocta[1,2,3-de]naphthalen-5-yl)-4-(trifluoromethyl)aniline] | 0.95 nM | 836 nM |  |  |  | 
CN(C)CCN1c2nc(OC[C@@]34CCCN3C[C@H](F)C4)nc3c(F)c(-c4cc(N)cc(Cl)c4C(F)(F)F)nc(c23)OCC12CCC2 [Example 37, 3-chloro-5-(10′-(2-(dimethylamino)ethyl)-4′-fluoro-2′-(((2R,7aS)-2-fluorotetrahydro-1H-pyrrolizin-7a(5H)-yl)methoxy)-8′H, 10′H-7′-oxa-1′,3′,6′,10′-tetraazaspiro[cyclobutane-1,9′-cyclohepta[de]naphthalen]-1′(10a′), 2′,3a′, 3 al′(6a′), 5′-pentaen-5′-yl)-4-(trifluoromethyl)aniline] | 2.3 nM | 639 nM |  |  |  | 
CNCCN1c2nc(OC[C@@]34CCCN3C[C@H](F)C4)nc3c(F)c(-c4cc(N)cc(Cl)c4C(F)(F)F)nc(c23)OCC12CCC2 [Example 36, 3-chloro-5-(4′-fluoro-2′-(((2R,7aS)-2-fluorotetrahydro-1H-pyrrolizin-7a(5H)-yl)methoxy)-10′-(2-(methylamino)ethyl)-8′H, 10′H-7′-oxa-1′,3′,6′,10′-tetraazaspiro[cyclobutane-1,9′-cyclohepta[de]naphthalen]-1′(10a′), 2′0.3a′, 3 al′(6a′), 5′-pentaen-5′-yl)-4-(trifluoromethyl)aniline] | 1.1 nM | 2160 nM |  |  |  | 
CN1c2nc(OC[C@@]34CCCN3C[C@H](F)C4)nc3c(F)c(-c4cc(N)cc(Cl)c4C(F)(F)F)nc(c23)OCCC12COC2 [Example 30, 3-chloro-5-(4-fluoro-2-(((2R,7aS)-2-fluorotetrahydro-1H-pyrrolizin-7a(5H)-yl)methoxy)-11-methyl-8,9-dihydro-11H-7-oxa-1,3,6,11-tetraazaspiro[cycloocta[de]naphthalene-10,3′-oxetan]-1(11a), 2,3a, 3a^1(6a), 5-pentaen-5-yl)-4-(trifluoromethyl)aniline] | 0.31 nM |  | 0.63 nM |  | 11 nM | 13 nM
CN1CCC[C@@]2(COc3nc4c5c(nc(-c6cc(N)cc(Cl)c6C(F)(F)F)c(F)c5n3)O[C@H]3COCC[C@@H]3N4C)CCC[C@@H]12 [Example 64, 3-chloro-5-((7aR,11aS)-4-fluoro-12-methyl-2-(((4aS,7aR)-1-methyloctahydro-4aH-cyclopenta[b]pyridin-4a-yl)methoxy)-7a, 8,10,11,11a, 12-hexahydro-7,9-dioxa-1,3,6,12-tetraazapleiaden-5-yl)-4-(trifluoromethyl)aniline] | 0.1 nM | 7.9 nM | 0.25 nM | 6.4 nM |  | 
CN(C)CCN1c2nc(OC[C@@]34CCCN3C[C@H](F)C4)nc3c(F)c(-c4cc(N)cc(Cl)c4C(F)(F)F)nc(c23)OCCC12COC2 [Example 44, 3-chloro-5-(11-(2-(dimethylamino)ethyl)-4-fluoro-2-(((2R,7aS)-2-fluorotetrahydro-1H-pyrrolizin-7a(5H)-yl)methoxy)-8,9-dihydro-11H-7-oxa-1,3,6,11-tetraazaspiro[cycloocta[de]naphthalene-10,3′-oxetan]-1(11a), 2,3a, 4,6-pentaen-5-yl)-4-(trifluoromethyl)aniline] | 0.65 nM | 184 nM |  |  |  | 
Cc1cc(N)cc(-c2nc3c4c(nc(OC[C@@]56CCCN5C[C@H](F)C6)nc4c2F)N(C)[C@@H]2COCC[C@H]2O3)c1C(F)(F)F [Example 61, 3-((7aR,11aR)-4-fluoro-2-(((2R,7aS)-2-fluorotetrahydro-1H-pyrrolizin-7a(5H)-yl)methoxy)-12-methyl-7a, 8,11a, 12-tetrahydro-9H, 11H-7,10-dioxa-1,3,6,12-tetraazapleiaden-5-yl)-5-methyl-4-(trifluoromethyl)aniline] | 0.57 nM | 23 nM | 0.8 nM | 22 nM |  | 
CNCC(C)N1c2nc(OC[C@@]34CCCN3C[C@H](F)C4)nc3c(F)c(-c4cc(N)cc(Cl)c4C(F)(F)F)nc(c23)OCC12CCC2 (stereo partly drawn) [Example 38, 3-chloro-5-(4′-fluoro-2′-(((2R,7aS)-2-fluorotetrahydro-1H-pyrrolizin-7a(5H)-yl)methoxy)-10′-(1-(methylamino)propan-2-yl)-8′H, 10′H-7′-oxa-1′,3′,6′,10′-tetraazaspiro[cyclobutane-1,9′-cyclohepta[de]naphthalen]-1′(10a′), 2′,3a′, 3 al′(6a′), 5′-pentaen-5′-yl)-4-(trifluoromethyl)aniline] | 0.38 nM | 102 nM |  |  |  | 
CNCCN1c2nc(OC[C@@]34CCCN3C[C@H](F)C4)nc3c(F)c(-c4cc(N)cc(Cl)c4C(F)(F)F)nc(c23)OCCC1C (stereo partly drawn) [Example 20, 3-chloro-5-(4-fluoro-2-(((2R,7aS)-2-fluorotetrahydro-1H-pyrrolizin-7a(5H)-yl)methoxy)-10-methyl-11-(2-(methylamino)ethyl)-8,9,10,11-tetrahydro-7-oxa-1,3,6,11-tetraazacycloocta[de]naphthalen-5-yl)-4-(trifluoromethyl)aniline] | 0.43 nM | 1010 nM |  |  |  | 
CN(C)CCN1c2nc(OC[C@@]34CCCN3C[C@H](F)C4)nc3c(F)c(-c4cc(N)cc(Cl)c4C(F)(F)F)nc(c23)OCCC12CC2 [Example 43, 3-chloro-5-(11-(2-(dimethylamino)ethyl)-4-fluoro-2-(((2R,7aS)-2-fluorotetrahydro-1H-pyrrolizin-7a(5H)-yl)methoxy)-8,9-dihydro-11H-7-oxa-1,3,6,11-tetraazaspiro[cycloocta[de]naphthalene-10,1′-cyclopropan]-1(11a), 2,3a, 4,6-pentaen-5-yl)-4-(trifluoromethyl)aniline] | 0.73 nM | 92 nM |  |  |  | 
CNCC(C)N1CCCOc2nc(-c3cc(N)cc(Cl)c3C(F)(F)F)c(F)c3nc(OC[C@@]45CCCN4C[C@H](F)C5)nc1c23 (stereo partly drawn) [Example 39, 3-chloro-5-(4-fluoro-2-(((2R,7aS)-2-fluorotetrahydro-1H-pyrrolizin-7a(5H)-yl)methoxy)-11-(1-(methylamino)propan-2-yl)-8,9,10,11-tetrahydro-7-oxa-1,3,6,11-tetraazacycloocta[de]naphthalen-5-yl)-4-(trifluoromethyl)aniline] | 3.9 nM | 1780 nM |  |  |  | 
CNCCN1c2nc(OC[C@@]34CCCN3C[C@H](F)C4)nc3c(F)c(-c4cc(N)cc(Cl)c4C(F)(F)F)nc(c23)OCCC12CC2 [Example 42, 3-chloro-5-(4-fluoro-2-(((2R,7aS)-2-fluorotetrahydro-1H-pyrrolizin-7a(5H)-yl)methoxy)-11-(2-(methylamino)ethyl)-8,9-dihydro-11H-7-oxa-1,3,6,11-tetraazaspiro[cycloocta[de]naphthalene-10,1′-cyclopropan]-1(11a), 2,3a, 4,6-pentaen-5-yl)-4-(trifluoromethyl)aniline] | 0.17 nM | 141 nM |  |  |  | 
CC(CN(C)C)N1CCCOc2nc(-c3cc(N)cc(Cl)c3C(F)(F)F)c(F)c3nc(OC[C@@]45CCCN4C[C@H](F)C5)nc1c23 (stereo partly drawn) [Example 40, 3-chloro-5-(11-(1-(dimethylamino)propan-2-yl)-4-fluoro-2-(((2R,7aS)-2-fluorotetrahydro-1H-pyrrolizin-7a(5H)-yl)methoxy)-8,9,10,11-tetrahydro-7-oxa-1,3,6,11-tetraazacycloocta[de]naphthalen-5-yl)-4-(trifluoromethyl)aniline] | 7.6 nM | 2000 nM |  |  |  | 
